Assay results taken from patent US10836767B2, “Serum stable pro-coelenterazine analogues” (PROMEGA CORPORATION, priority 2017, dated 2020).
“Also recorded” adds a separate entry of the source. Each block holds one molecule with its values, some of them ahead of it.

Columns and labels:
[1] = system: HEK 293 cells transiently transfected with SmBiT-PRKACA and LgBiT-PRKAR2A; assay: Live cell assay, luminescent signal decay over time in HEK293 cells expressing the PKA NanoBiT pair; format: cell-based; settings: DMEM, 4% FBS; for luminescent signal decay: almost independent of concentration; for strength of signal relative to PBI-4377: concentration above 20 uM
Description: Compounds WZ-0429, WZ-0439, WZ-0454, WZ-0441, WZ-0451. WZ-0416, WZ-0420, WZ-0461 and WZ-0419 were tested in HEK 293 cells transiently transfected plasmid DNA constructs for SmBiT-PRKACA and LgBiT-PRKAR2A expressed via the HSV-TK promoter in DMEM media with 4% FBS, and the luminescent signal decays were monitored over time. […] In contrast, the serum instable compounds, WZ-0429. […] The evaluations of compounds WZ-0429, WZ-0439, WZ-0454, WZ-0441, WZ-0451. WZ-0416, WZ-0420, WZ-0461 and WZ-0419 were performed by the following protocol.
Day 1, plate cells. HEK293 cells were grow in complete medium [DMEM+10% FBS+1× NEAA]. Cells were plated at approximately 10,000 cells per well (100 μL) in 96-well plates (Corning 3917).
Day 2, transient transfection. Plasmid DNA constructs for SmBiT-PRKACA and LgBiT-PRKAR2A expressed via the HSV-TK promoter were diluted to 6.25 ng/μL in Opti-MEM® I and FuGENE HD was added at a 3:1 lipid:DNA ratio. After a 5-10 minute incubation at room temperature, 8 μl of lipid:DNA solution was added per well, and cells were incubated in a 37° C., 5% CO2 incubator overnight.
Day 3, live cell assay. Compounds were dissolved to 50 mM final in DMSO. Compounds were diluted in DMSO to give 33.3, 16.7 and 6.7 mM stocks. DMSO stock solutions were diluted 667-fold in Opti-MEM® I to give 1× solutions. Complete medium was aspirated and replaced with the respective 1× solution containing 75, 50, 25 or 10 uM of the respective compounds (0.15% v/v DMSO final), such as WZ-0429, WZ-0439, WZ-0454, WZ-0441WZ-0451, WZ-0416, WZ-0420 and WZ-0419, but containing 40, 30, 20 or 10 μM as an instead for compound WZ-0461. Luminescence was measured on a GloMax Multi Plus luminometer every 15 minutes at 37° C. using a 1 second integration time.

[2] = system: CMV promoter-NanoLuc® gene transfected HEK293 cells; assay: Live cell reporter gene assay, luminescent signal decay over time with/without porcine liver esterase (PLE); format: cell-based; settings: DMEM, 10% FBS
Description: The synthesized pro-coelenterazine or pro-furimazine compounds were evaluated in a live cell reporter gene assay. As shown in FIGS. 3A-C, the luminescent signal decays were monitored over time in HEK293 cells in DMEM media with 10% FBS transfected with 10 ng/well of CMV promoter-NanoLuc® gene with/without adding exogenous esterase porcine liver esterase (PLE) with three representative pro-coelenterazine analogues, e.g. serum instable compound WZ-0308, traditional live cell pro-substrate PBI-4377, and disclosed serum stable compound WZ-0324. The evaluations were performed by the following protocol.
Day 1: Plate cells. HEK293 cells were grown in complete medium (DMEM+10% FBS+1× Non-Essential Amino Acids (NEAA)). The cells were harvested at passasge 6 (˜95% confluent), by a procedure of: washing with DPBS, treating the cells with TrypLE Express until cells dislodged, adding 4× volumes of complete medium, pelleting at 188×g for 2 minutes, and suspending the cells in complete medium to 7.35E4 cells/mL. The cells were plated 100 μL per well into the inner 60 wells of 96-well plates (7,350 cells per well): 100 μL DPBS in the 36 outside wells and 100 μL DPBS between wells. The cells were than incubated overnight at 37° C., 5% CO2.
Day 2: Transfection. Two two master mixes (MM) were made: MM#1: 1.63 μL prep #1; 9.5 μL prep #3; 1.9 mL OM1; and MM#2: 2.9 uL prep #2; 9.5 μL prep #3; 1.9 mL OM1. 35.6 μl FuGENE HD was added to each MM and mixed by pipetting up/down. The mixture was incubated for ˜10 minutes at room temperature. Next, 8 μL of the mixture was added per well using single channel repeater pipette; n=3 per condition. The mixture was then incubated for ˜24 hours at 37° C., 5% CO2.
(§1) Day 3: Live cell assay. Stocks of tested compounds in DMSO (500×) were prepared by serial dilution of 50 mM stock with DMSO. The Medium+/− porcine liver esterase (PLE) at room temperature was prepared by adding 1 and 0.333 ug/ml PLE in CO2 IM+10% FBS. CO2 IM+10% FBS with no added PLE was also prepared. Next, medium+test compound solutions (room temperature) was prepared by the steps of: adding 2 mL of respective medium per channel, adding 4 μL respective tested compound stock per channel and mixing by pipetting up/down 10-15×. The final DMSO concentration was 0.2% v/v. The DMSO solution was dropped to the bottom of the channel, showing precipitation for the higher concentrations. After pipetting up/down, solutions with WZ-0324 at a final concentration of ≥50 uM were noticeably hazy (100 uM>75 uM>50 uM), in some cases even after extended incubation at 37° C. The Solutions were allowed to stand at room temperature for 15-20 minutes prior to addition to cells (P1->P2->P3).
The medium was aspirated and replaced with 200 μL/well of respective medium+tested compound solution. DPBS was added to 200 μL total to outside 36× wells. The system was quickly moved to respective GMM+ to start RLU measurements at 37° C. The measuments were carried out under the following conditions: 1 second integration time; RLU measurement every 15 minutes; the lid was removed for the overnight RLU measurements; and initial RLU measurement would be <37° C. owing to the addition of room temperature medium and cooling of the plate.
Data analysis: average RLU plotted for n=3; error represented as standard deviation was included in each imbedded Prism file, but not shown for the sake of clarity in interpreting the curves.

DLD-1 cells = assay: Complementary NanoLuc fragment-fused Annexin V real-time apoptosis assay; format: cell-based; settings: 10,000 DLD-1 cells/well; rhTRAIL; t=3.5, 7, 24 and 30 hr
Description: Small and large fragments of luciferase have been engineered as fusion proteins linked to annexin V for detecting of apoptosis in real-time using a plate-reading luminometer. The individual annexin V-luciferase fragment fusion pairs have low intrinsic affinity for each other, and thus produce no or low luminescence in culture medium or in the presence of non-apoptotic cells; but, when the annexin V-luciferase fragment fusion proteins bind in close proximity to phosphatidylserine exposed on the surface of apoptotic cells, the luciferase fragments reconstitute an active enzyme and generate a luminescent signal.
General protocol for complementary NanoLuc® fragment-fused-Annexin V binding: DLD-1 cells (10,000/well; 100 μL) were plated in medium+10% FBS and 2× CellTox Green in a solid white 96-well plate. After the cells were allowed to attach, 50 μL of recombinant human TRAIL at final concentration 500 ng/ml in medium+10% FBS fortified with 1 mM CaCl2 was added. […] The plate was incubated at 37° C./5% CO2 in a tissue culture incubator, and luminescence and fluorescence (Ex 485/Em 520) was measured kinetically at the indicated time points. […] The kinetically preceded increases in fluorescence of Cytotox Green indicate cell death. […]

[3] = Stability test by HPLC in DMSO or DMEM media with or without fetal bovine serum; format: in vitro ADME; settings: 40 μM; DMEM media with 10% FBS; 10 hours
Description: “Serum stability” refers to the stability of a compound in media or culture that includes serum. The serum as used herein may include, but is not limited to, fetal bovine serum (FBS). Serum stability of a compound as used herein generally may be characterized by the extent of degradation of such compound in a serum over a period of time. For example, a compound may degrade by less than 25%, less than 20%, less then 15%, or even less than 10% in FBS over a period of 24 hours or longer. For live cell assays, serum (such as FBS) is a component to maintain cell health. The degree of degradation of the disclosed compounds or the other pro-coelenterazine analogues in DMSO control, or DMEM media with/without FBS, can be monitored by HPLC using specific elution solvent/buffer (e.g. 0.1% TFA and acetonitrile) under the same condition at certain time of points. The percentage of purity can be calculated by the peak area of the tested compound divided by the total peak areas including tested compound and degradation compounds at their corresponding retention time at certain absorbance wavelength (e.g. 260 nm) at certain time point in media with/without FBS. The changes of purity for a given compound over time indicate the degree of instability of the compound in media/culture with/without serum.
The tested compounds were dissolved in DMSO stock at a concentration of 20 mM. […]

[4] = Haze (solubility) observation of medium + test compound solutions; format: physicochemical; settings: for concentration above which haze was observed: medium + compound solution
Description: as §1

Compound: COC(OC)C(=O)OCOc1c(Cc2ccco2)nc2c(Cc3ccccc3)nc(-c3ccccc3)cn12 [WZ-0454]
- luminescent signal decay [1]: rapid signal decay

Compound: CC(=O)OCOc1c(Cc2ccco2)nc2c(Cc3ccccc3)nc(-c3ccccc3)cn12 [WZ-0308]
- signal at the initial time point [2]: highest signal
- luminescent signal decay ([2]; FIG. 3A): rapid signal decay
- period of rapid luminescent signal decay ([2]; even without exogenous PLE): 2 to 3 h

Compound: C=CCOC(=O)N1CCC(C(=O)OCOc2c(Cc3ccco3)nc3c(Cc4ccccc4)nc(-c4ccccc4)cn23)C1 (stereo not drawn) [WZ-0441]
- luminescent signal decay [1]: rapid signal decay

Compound: COC(C)(C)C(=O)OCOc1c(Cc2ccco2)nc2c(Cc3ccccc3)nc(-c3ccccc3)cn12 [WZ-0451, ((8-benzyl-2-(furan-2-ylmethyl)-6-phenylimidazo[1,2-a]pyrazin-3-yl)oxy)methyl 2-methoxy-2-methylpropanoate]
- strength of signal relative to PBI-4377 [1]: 10 times

Compound: COCCOCCOCCOCC(C)(C)C(=O)OCOc1c(Cc2ccco2)nc2c(Cc3ccccc3)nc(-c3ccccc3)cn12 [WZ-0336, ((8-benzyl-2-(furan-2-ylmethyl)-6-phenylimidazo[1,2-a]pyrazin-3-yl)oxy)methyl 13,13-dimethyl-2,5,8,11-tetraoxatetradecan-14-oate]
- luminescence response to TRAIL with the compound as pro-substrate (DLD-1 cells): dose-dependent increases in luminescence

Compound: O=C(OCOc1c(Cc2ccco2)nc2c(Cc3ccccc3)nc(-c3ccccc3)cn12)C1CCOC1 (stereo not drawn) [WZ-0439]
- luminescent signal decay [1]: rapid signal decay

Compound: O=C(OCOc1c(Cc2ccco2)nc2c(Cc3ccccc3)nc(-c3ccccc3)cn12)C1CCCO1 (stereo not drawn) [WZ-0429]
- luminescent signal decay [1]: rapid signal decay

Compound: O=C(OCOc1c(Cc2ccco2)nc2c(Cc3ccccc3)nc(-c3ccccc3)cn12)c1ccoc1 [WZ-0461, ((8-benzyl-2-(furan-2-ylmethyl)-6-phenylimidazo[1,2-a]pyrazin-3-yl)oxy)methyl furan-3-carboxylate]
- signal strength (brightness) relative to PBI-4377 [1]: comparable or slightly better

- degradation (HPLC purity change) [3]: approximately 50%
Compound: CC(C)C(=O)OCOc1c(Cc2ccco2)nc2c(Cc3ccccc3)nc(-c3ccccc3)cn12 [WZ-0415]

Compound: O=C(OCOc1c(Cc2ccco2)nc2c(Cc3ccccc3)nc(-c3ccccc3)cn12)c1ccccc1 [WZ-0416, ((8-benzyl-2-(furan-2-ylmethyl)-6-phenylimidazo[1,2-a]pyrazin-3-yl)oxy)methyl benzoate]
- signal strength (brightness) relative to PBI-4377 [1]: comparable or slightly better

Compound: O=C(OCOc1c(Cc2ccco2)nc2c(Cc3ccccc3)nc(-c3ccccc3)cn12)c1ccco1 [WZ-0420, ((8-benzyl-2-(furan-2-ylmethyl)-6-phenylimidazo[1,2-a]pyrazin-3-yl)oxy)methyl furan-2-carboxylate]
- strength of signal relative to PBI-4377 [1]: 10 times

- final concentration at which solutions were noticeably hazy ([4]; CO2 IM + 10% FBS, 0.2% v/v DMSO, after pipetting up/down): ≥ 50 µM
- concentration above which haze was observed [4]: above 70 μM
- concentration above which haze was observed ([4]; listed as WZ-324): > 70 µM
Compound: COCCOCCOCC(C)(C)C(=O)OCOc1c(Cc2ccco2)nc2c(Cc3ccccc3)nc(-c3ccccc3)cn12 [WZ-0324, ((8-benzyl-2-(furan-2-ylmethyl)-6-phenylimidazo[1,2-a]pyrazin-3-yl)oxy)methyl 3-(2-(2-methoxyethoxy)ethoxy)-2,2-dimethylpropanoate]
- luminescence after addition of exogenous PLE esterase versus without PLE ([2]; PLE added): significantly enhanced; also recorded: significantly higher luminescence
- signal in the absence of exogenous PLE esterase, versus PBI-4377 ([2]; no PLE): higher signal
